Test results published in article PMC11347369, “Synthesis and antibacterial action of 3’,6’-disubstituted spectinomycins” (The Journal of Antibiotics, 2024).
Converted amounts (≈) assume the structure as drawn.

How the values were obtained:
[1] = test system: M. tuberculosis H37Rv ∆1258c; assay: microbe, parasite or virus in culture; format: cell-based; settings: Mycobacterium tuberculosis, 168 h
[2] = test system: M. abscessus ATCC 19977 ∆2780c; assay: microbe, parasite or virus in culture; format: cell-based, Mycobacterium abscessus; settings: Mycobacteroides abscessus, ATCC19977, 72 h, read-out: ∆2780c MIC
[3] = test system: M. smegmatis strain MC^2 155; assay: MIC broth microdilution, M. smegmatis; format: cell-based, Mycobacterium smegmatis; settings: Mycolicibacterium smegmatis, MC^2155, 72 h; M. smegmatis strain MC^2 155; 3 days; read-out: WT MIC
[4] = molecular target: T1, M. smegmatis ribosomes (strain SZ380) (Mycolicibacterium smegmatis, UniProt A0QSG6); assay: Mycobacterial cell-free translation inhibition assay; format: biochemical, Mycobacterium smegmatis
T1 construct: S30 extracts were prepared by addition of dithiothreitol (DTT) to 1 mM and centrifugation; endogenous in cells; host or cells: M. smegmatis strain SZ380, S30 cell extract
T1 sequence (A0QSG6 whole entry): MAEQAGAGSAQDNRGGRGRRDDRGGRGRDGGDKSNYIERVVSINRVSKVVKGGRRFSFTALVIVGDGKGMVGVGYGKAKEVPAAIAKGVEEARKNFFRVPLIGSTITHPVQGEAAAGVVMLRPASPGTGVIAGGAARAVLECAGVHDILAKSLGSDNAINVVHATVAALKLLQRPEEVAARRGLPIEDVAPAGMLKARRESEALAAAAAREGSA
Procedure: Mycobacterial cell-free translation inhibition assays were performed as described previously. In brief, M. smegmatis strain SZ380 bacterial cells were disrupted and emulsified with a microfluidizer processor (Microfluidics, Westwood, MA, USA) at 25,000 lb/in^2. S30 extracts were prepared by addition of dithiothreitol (DTT) to 1 mM and centrifugation at 30,000 × g at 4 °C. Translation reaction mixtures containing either test article or DMSO vehicle control and 4 μl of the S30 extract, 0.2 mM amino acid mix, 6 μg tRNA (Sigma), 0.4 μg hFluc mRNA, 0.3 μl protease inhibitor (complete, EDTA-free, Roche), 12 U RNAse inhibitor (Ribolock, Thermo Scientific), 6 μl S30 premix without amino acids (Promega), plus water to a final reaction volume of 15 μl were incubated for 1 h at 37 °C. The reaction was stopped on ice before adding 75 μl of luciferase assay reagent (Promega) and recording of luminescence. Regression analysis and IC50 calculations were performed using GraphPad Prism version 9.3.1 by using the equation [log(inhibitor) vs. response–Variable slope (four parameters)] with the fitting method: least squares (ordinary) fit. Y = Bottom + (Top-Bottom)/(1 + 10^((X-LogIC50))).

E. faecalis ATCC 29212 = assay: MIC broth microdilution, E. faecalis; format: cell-based; settings: Enterococcus faecalis, ATCC29212; E. faecalis ATCC 29212; read-out: Minimum Inhibitory Concentration
E. faecium ATCC 19434 = assay: MIC broth microdilution, E. faecium; format: cell-based; settings: Enterococcus faecium, ATCC19434; E. faecium ATCC 19434; read-out: Minimum Inhibitory Concentration
S. aureus USA300 = assay: MIC broth microdilution, S. aureus; format: cell-based; settings: Staphylococcus aureus; S. aureus USA300; read-out: Minimum Inhibitory Concentration
[5] = test system: S. epidermidis ATCC 14990; assay: MIC broth microdilution, S. epidermidis; format: cell-based; settings: Staphylococcus epidermidis, ATCC14990; S. epidermidis ATCC 14990; read-out: Minimum Inhibitory Concentration
S. pneumoniae R6 = assay: MIC broth microdilution, S. pneumoniae; format: cell-based; settings: Streptococcus pneumoniae, read-out: Minimum Inhibitory Concentration
S. pyogenes ATCC 700294 = assay: MIC broth microdilution, S. pyogenes; format: cell-based; settings: Streptococcus pyogenes, ATCC700294; S. pyogenes ATCC 700294; read-out: Minimum Inhibitory Concentration
A. baumannii ATCC 19606 = assay: MIC broth microdilution, A. baumannii; format: cell-based, Acinetobacter baumannii; settings: A. baumannii ATCC 19606
[6] = test system: K. pneumoniae ATCC 700603; assay: MIC broth microdilution, K. pneumoniae; format: cell-based, Klebsiella pneumoniae; settings: K. pneumoniae ATCC 700603
P. aeruginosa ATCC 15692 = assay: MIC broth microdilution, P. aeruginosa; format: cell-based, Pseudomonas aeruginosa; settings: P. aeruginosa ATCC 15692
E. coli K12 ∆tolC = assay: microbe, parasite or virus in culture; format: cell-based; settings: Escherichia coli, read-out: Minimum Inhibitory Concentration
Gram-positive species = assay: MIC, Gram-positive panel compared to SPC; format: cell-based; settings: against all Gram-positive species
M. tuberculosis H37Rv [7] = test system: M. tuberculosis H37Rv
M. abscessus ATCC 19977 [8] = test system: M. abscessus ATCC 19977
E. coli K12 [9] = test system: E. coli K12
M. tuberculosis H37Rv [10] = assay: microbe, parasite or virus in culture; settings: Mycobacterium tuberculosis, 168 h, read-out: WT MIC
M. abscessus ATCC 19977 [11] = assay: microbe, parasite or virus in culture; settings: Mycobacteroides abscessus, ATCC19977, 72 h, read-out: WT MIC
E. coli K12 [12] = assay: microbe, parasite or virus in culture; settings: Escherichia coli, K12, read-out: Minimum Inhibitory Concentration

CCCC[C@@H]1CC(=O)[C@]2(O)O[C@@H]3[C@@H](NC)[C@@H](O)[C@@H](NC)[C@H](O)[C@H]3O[C@@H]2O1 [TroSPC (2), trospectomycin, reference compound]
MIC [1]: 2 µg/mL (≈ 5.34 µM)
MIC [2]: 16 µg/mL (≈ 42.7 µM)
MIC [3]: 32 µg/mL (≈ 85.5 µM)
IC50 [4]: 510 nM
MIC (E. faecalis ATCC 29212): 64 µg/mL (≈ 171 µM)
MIC (E. faecium ATCC 19434): 64 µg/mL (≈ 171 µM)
MIC (S. aureus USA300): 64 µg/mL (≈ 171 µM)
MIC [5]: 32 µg/mL (≈ 85.5 µM)
MIC (S. pneumoniae R6): 4 µg/mL (≈ 10.7 µM)
MIC (S. pyogenes ATCC 700294): 4 to 8 µg/mL (≈ 10.7 to 21.4 µM)
Minimum Inhibitory Concentration (A. baumannii ATCC 19606): >64 µg/mL
MIC (A. baumannii ATCC 19606; Acinetobacter baumannii, ATCC19606, read-out: Minimum Inhibitory Concentration): > 64 µg/mL
Minimum Inhibitory Concentration [6]: >64 µg/mL
MIC ([6]; Klebsiella pneumoniae, ATCC700603, read-out: Minimum Inhibitory Concentration): > 64 µg/mL
Minimum Inhibitory Concentration (P. aeruginosa ATCC 15692): >64 µg/mL
MIC (P. aeruginosa ATCC 15692; Pseudomonas aeruginosa, ATCC15692, read-out: Minimum Inhibitory Concentration): > 64 µg/mL
MIC (E. coli K12 ∆tolC): 16 µg/mL (≈ 42.7 µM)
increase in activity compared to SPC (Gram-positive species): > 4 fold
Efflux Ratio (M. tuberculosis H37Rv [7]): 16
Efflux Ratio (M. abscessus ATCC 19977 [8]): 4
E. coli Efflux Ratio (E. coli K12 [9]): >4
MIC (M. tuberculosis H37Rv [10]): 32 µg/mL (≈ 85.5 µM)
MIC (M. abscessus ATCC 19977 [11]): 64 µg/mL (≈ 171 µM)
MIC (E. coli K12 [12]): > 64 µg/mL
